Measurements: US10829481B2, “Benzimidazole derivatives as modulators of ROR-gamma” (Vitae Pharmaceuticals, LLC, priority 2016, dated 2020)

Columns and labels:
[1] = target: recombinant RORγ Ligand Binding Domain (LBD) protein (Homo sapiens (Human), UniProt P51449); assay: Radio-Ligand RORγ Binding Assay (Assay 1); settings: competition with 25-hydroxy [26,27-3H]-cholesterol, SPA
Method in brief: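 Scintillation proximity competition against 25-hydroxy [26,27-^3H]-cholesterol (8.6 nM solution) for 6×His-GST-tagged RORγ LBD (24 nM solution) in HEPES pH 7.4 with CHAPS, β-octylglucopyranoside and DTT; semi-log compound dilutions, ~1 h total at rt with poly-Lys YSi beads. IC50 from four-parameter fit; Ki derived from [RL] and radioligand KD.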

[2] = target: full-length RORγt in Jurkat cells (Homo sapiens (Human), UniProt P51449); assay: RORγt 5×RORE Assay in Jurkat Cells (Assay 2); assay type: cell-based; settings: 5×RORE Nanoluc luciferase reporter
full-length RORγt in Jurkat cells, sequence (P51449 other isoform, or with tags, fused parts or gaps): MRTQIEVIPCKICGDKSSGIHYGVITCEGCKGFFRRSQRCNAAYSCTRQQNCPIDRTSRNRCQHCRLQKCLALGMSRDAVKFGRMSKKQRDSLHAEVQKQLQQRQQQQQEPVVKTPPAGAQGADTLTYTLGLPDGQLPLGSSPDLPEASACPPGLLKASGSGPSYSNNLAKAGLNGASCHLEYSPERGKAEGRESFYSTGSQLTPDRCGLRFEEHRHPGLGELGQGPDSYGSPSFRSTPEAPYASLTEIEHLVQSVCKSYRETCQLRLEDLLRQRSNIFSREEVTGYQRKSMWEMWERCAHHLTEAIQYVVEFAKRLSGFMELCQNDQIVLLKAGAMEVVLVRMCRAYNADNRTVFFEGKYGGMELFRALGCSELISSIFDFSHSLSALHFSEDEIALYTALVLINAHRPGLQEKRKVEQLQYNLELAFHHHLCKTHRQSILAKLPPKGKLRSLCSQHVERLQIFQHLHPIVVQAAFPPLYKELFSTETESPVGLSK

recombinant RORγ Ligand Binding Domain (LBD) protein, sequence (P51449 269-508): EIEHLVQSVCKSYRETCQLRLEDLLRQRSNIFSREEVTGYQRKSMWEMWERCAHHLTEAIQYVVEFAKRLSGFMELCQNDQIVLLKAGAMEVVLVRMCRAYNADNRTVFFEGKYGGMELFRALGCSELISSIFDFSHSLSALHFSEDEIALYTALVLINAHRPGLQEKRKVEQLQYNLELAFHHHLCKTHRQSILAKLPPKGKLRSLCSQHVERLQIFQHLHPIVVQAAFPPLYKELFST

Q: For `CCS(=O)(=O)c1ccc(CNC(=O)c2ccc3c(c2)nc(C2CC2)n3Cc2cc(O)cc(OC(F)(F)F)c2)cc1` [I-153, 2-cyclopropyl-N-(4-(ethylsulfonyl)benzyl)-1-(3-hydroxy-5-(trifluoromethoxy)benzyl)-1H-benzo[d]imidazole-5-carboxamide], which Ki [1] is on record?
A: Its Ki is < 100 nM.

Q: What about the IC50 [2] of the same molecule?
A: The IC50 was < 100 nM.

Q: How did the Ki [1] turn out when `CCS(=O)(=O)c1ccc(CNC(=O)c2ccc3c(c2)nc(C2CC2)n3Cc2cccc(O)c2O)cc1` [I-154, 2-cyclopropyl-1-(2,3-dihydroxybenzyl)-N-(4-(ethylsulfonyl)benzyl)-1H-benzo[d]imidazole-5-carboxamide] was run?
A: The Ki was < 100 nM.

Q: And the IC50 [2]?
A: The IC50 was > 1000 nM.

Q: For `CCS(=O)(=O)c1ccc(CNC(=O)c2ccc3c(c2)nc(C(F)(F)F)n3CC2CCN(c3ncc(F)cn3)CC2)cc1` [I-158, N-(4-(ethylsulfonyl)benzyl)-1-((1-(5-fluoropyrimidin-2-yl)piperidin-4-yl)methyl)-2-(trifluoromethyl)-1H-benzo[d]imidazole-5-carboxamide], which Ki [1] is on record?
A: The Ki was < 100 nM.

Q: What about the IC50 [2] of the same molecule?
A: The IC50 was > 1000 nM.

Q: For `CCS(=O)(=O)c1ccc(CNC(=O)c2ccc3c(c2)nc(N(C)C)n3Cc2cccc3c2OC(F)(F)O3)cc1` [I-162, 1-((2,2-difluorobenzo[d][1,3]dioxol-4-yl)methyl)-2-(dimethylamino)-N-(4-(ethylsulfonyl)benzyl)-1H-benzo[d]imidazole-5-carboxamide], which Ki [1] is on record?
A: Its Ki is < 100 nM.

Q: What about the IC50 [2] of the same molecule?
A: Its IC50 is < 100 nM.

Q: With `O=C(NCC1CCN(S(=O)(=O)CCO)CC1)c1ccc2c(c1)nc(C(F)(F)F)n2Cc1cccc2c1OC(F)(F)O2` [I-163, 1-((2,2-difluorobenzo[d][1,3]dioxol-4-yl)methyl)-N-((1-((2-hydroxyethyl)sulfonyl)piperidin-4-yl)methyl)-2-(trifluoromethyl)-1H-benzo[d]imidazole-5-carboxamide] as the molecule, how does the Ki [1] read?
A: Its Ki is < 100 nM.

Q: What about the IC50 [2] of the same molecule?
A: Its IC50 is < 100 nM.

Q: `CCS(=O)(=O)c1ccc([C@H](CC(=O)O)NC(=O)c2ccc3c(c2)nc(C(F)(F)F)n3Cc2cccc3c2OC(F)(F)O3)cc1` [I-165, (S)-3-(1-((2,2-difluorobenzo[d][1,3]dioxol-4-yl)methyl)-2-(trifluoromethyl)-1H-benzo[d]imidazole-5-carboxamido)-3-(4-(ethylsulfonyl)phenyl)propanoic acid] was tested. Which Ki [1] did it give?
A: The Ki was < 100 nM.

Q: What about the IC50 [2] of the same molecule?
A: Its IC50 is > 1000 nM.

Q: For `CCS(=O)(=O)c1ccc([C@H](COCC(=O)O)NC(=O)c2ccc3c(c2)nc(C(F)(F)F)n3Cc2cccc3c2OC(F)(F)O3)cc1` [I-166, (R)-2-(2-(1-((2,2-difluorobenzo[d][1,3]dioxol-4-yl)methyl)-2-(trifluoromethyl)-1H-benzo[d]imidazole-5-carboxamido)-2-(4-(ethylsulfonyl)phenyl)ethoxy)acetic acid], which Ki [1] is on record?
A: The Ki was < 100 nM.

Q: And the IC50 [2]?
A: Its IC50 is > 1000 nM.

Q: Which Ki [1] does the source give for `CCS(=O)(=O)c1ccc([C@H](CC(=O)NC)NC(=O)c2ccc3c(c2)nc(C(F)(F)F)n3Cc2cccc3c2OC(F)(F)O3)cc1` [I-167, (S)-1-((2,2-difluorobenzo[d][1,3]dioxol-4-yl)methyl)-N-(1-(4-(ethylsulfonyl)phenyl)-3-(methylamino)-3-oxopropyl)-2-(trifluoromethyl)-1H-benzo[d]imidazole-5-carboxamide] here?
A: The Ki was < 100 nM.

Q: What about the IC50 [2] of the same molecule?
A: The IC50 was < 100 nM.

Q: How did the Ki [1] turn out when `CCS(=O)(=O)c1ccc([C@H](CC(N)=O)NC(=O)c2ccc3c(c2)nc(C(F)(F)F)n3Cc2cccc3c2OC(F)(F)O3)cc1` [I-168, (S)-N-(3-amino-1-(4-(ethylsulfonyl)phenyl)-3-oxopropyl)-1-((2,2-difluorobenzo[d][1,3]dioxol-4-yl)methyl)-2-(trifluoromethyl)-1H-benzo[d]imidazole-5-carboxamide] was run?
A: Its Ki is < 100 nM.

Q: And the IC50 [2]?
A: Its IC50 is < 100 nM.

Q: With `CNC(=O)CS(=O)(=O)c1ccc(CNC(=O)c2ccc3c(c2)nc(C(F)(F)F)n3Cc2cccc3c2OC(F)(F)O3)cc1` [I-169, 1-((2,2-difluorobenzo[d][1,3]dioxol-4-yl)methyl)-N-(4-((2-(methylamino)-2-oxoethyl)sulfonyl)benzyl)-2-(trifluoromethyl)-1H-benzo[d]imidazole-5-carboxamide] as the molecule, how does the Ki [1] read?
A: Its Ki is < 100 nM.

Q: What about the IC50 [2] of the same molecule?
A: The IC50 was < 100 nM.

Q: Which Ki [1] does the source give for `CCS(=O)(=O)c1ccc(C(O)C(=O)Nc2ccc3c(c2)nc(C(F)(F)F)n3Cc2cccc3c2OC(F)(F)O3)cc1` (stereo not shown) [I-170, N-(1-((2,2-difluorobenzo[d][1,3]dioxol-4-yl)methyl)-2-(trifluoromethyl)-1H-benzo[d]imidazol-5-yl)-2-(4-(ethylsulfonyl)phenyl)-2-hydroxyacetamide] here?
A: The Ki was < 100 nM.

Q: And the IC50 [2]?
A: Its IC50 is < 100 nM.

Q: `CCS(=O)(=O)c1ccc(CNC(=O)c2ccc3c(c2)nc(C(F)(F)F)n3Cc2cccc3c2CCO3)cc1` [I-172, 1-((2,3-dihydrobenzofuran-4-yl)methyl)-N-(4-(ethylsulfonyl)benzyl)-2-(trifluoromethyl)-1H-benzo[d]imidazole-5-carboxamide] was tested. Which Ki [1] did it give?
A: The Ki was < 100 nM.

Q: And the IC50 [2]?
A: The IC50 was < 100 nM.

Q: How did the Ki [1] turn out when `CCS(=O)(=O)c1ccc(CNC(=O)c2ccc3c(c2)nc(C(=O)OC)n3Cc2cccc3c2OC(F)(F)O3)cc1` [I-173, methyl 1-((2,2-difluorobenzo[d][1,3]dioxol-4-yl)methyl)-5-((4-(ethylsulfonyl)benzyl)carbamoyl)-1H-benzo[d]imidazole-2-carboxylate] was run?
A: The Ki was < 100 nM.

Q: What about the IC50 [2] of the same molecule?
A: The IC50 was 100 to 1000 nM.

Q: How did the Ki [1] turn out when “(R)-1-(1-(3-cyanophenyl)ethyl)-N-(4-(ethylsulfonyl)benzyl)-2-(trifluoromethyl)-1H-benzo[d]imidazole-5-carboxamide [I-93.2]” was run?
A: The Ki was < 100 nM.

Q: What about the IC50 [2] of the same molecule?
A: The IC50 was < 100 nM.
